Experimental data reported in patent US8580854B2, “Methods of suppression of rage gene expression and rage triggered inflammatory genes by selected age-inhibitors” (City of Hope, priority 2005, dated 2013).

What was measured:
[1] = system: THP-1 cells; test: Cell viability test on THP-1 cells (cell counter, Trypan Blue); format: cell-based, human
Procedure: Cell Viability Test—THP-1 cells were seeded onto 6-well plates at a concentration of ˜5×10^5/ml in RPMI medium containing 10% FCS as above, and then incubated with various concentrations of LR-90 or control medium alone for 24 hr at 37° C., 5% CO2. After incubation, overall cell counts were measured using a cell counter (Coulter Z1 Cell and Particle Counter, Beckman Coulter Inc., Fullerton, Calif.), and the number of viable cells determined by hemocytometer counts of Trypan Blue—impermeable cells.

[2] = system: MCP-1; test: Secreted MCP-1 levels of THP-1 cells by ELISA; format: cell-based, human; details: THP-1 supernatants
Procedure: Measurement of MCP-1 levels by ELISA. Supernatants of THP-1 cells (5×10^5 cells/ml) cultured in RPMI 1640 medium containing 2% FBS for 18 hrs under control or LR-90 treated conditions were used to assay secreted MCP-1 levels using the Quantikine ELISA kit. Medium alone without cells was incubated under the same conditions and used as blank control for the ELISA.
(§1) Data Analyses. Statistical analyses were performed using Prism software (GraphPad, San Diego, Calif., USA). Unless otherwise indicated, data are presented as Means±Std. Group comparisons were analyzed using one-way ANOVA and subsequent post-hoc analysis by Tukey's test. A P value of less than 0.05 was considered statistically significant.

[3] = system: CML-AGE; test: Immunohistochemical staining of renal CML-AGE accumulation; format: in vivo, rat; details: diabetic rats, increasing concentrations; 25 and 50 mg/L best inhibitory effects
Description: (§2) Formalin-fixed […] embedded kidney sections ([…]) were mounted on slides and stained with 6D12 monoclonal anti-CML-AGE, polyclonal rabbit anti-RAGE and polyclonal goat anti-nitrotyrosine antibodies as described before (25). […] Similarly, RAGE protein expression in the glomeruli was visibly higher in diabetic rats compared with non-diabetic animals (FIG. 5).

[4] = system: RAGE; test: S100b-induced RAGE mRNA expression on THP-1 monocytes (RT-PCR); format: cell-based, human; details: THP-1, pre-treated 1 hr with 25-200 ug/ml, S100b 4 hr; statistically significant at 100 and 200 ug/ml
Procedure: (§3) Human THP-1 monocytic cells were obtained from the American Type Culture Collection and cultured as described (27) in RPMI 1640 medium supplemented with 10% fetal calf serum (FCS), glutamine, HEPES, streptomycin/penicillin ([…]/100 units/ml), 50 uM-mercaptoethanol, and 5.5 mM D-glucose in a 5% CO2 incubator at 37° C. THP-1 cells (5×10^5 cells/ml) in 4 ml of medium were pre-treated with various concentrations of LR-90 (0, 25, 50, 100 and 200 ug/ml; prepared in 20 mM stock solution in DMSO) for 1 hr. Control cells received DMSO vehicle only. Thereafter, S100b ([…]) was added and cells re-incubated for 4 hr. The cell suspension was then centrifuged at 200 g, the supernatant was removed and the cell pellet was frozen at −70° C. for subsequent RNA extraction.
(§4) RNA Extraction and Relative RT-PCR-Total RNA was isolated by the RNA-STAT-60 reagent method (Teltest, Friendswood, Tex.), and […] was used for the RT reaction using a Gene Amp RNA PCR kit. […] PCR products were fractionated on 2.5% agarose gels, photographed using Alpha Imager 2000, and analyzed with Quantity 1 software (Bio-Rad Laboratories, Hercules, Calif.). Results were expressed as fold stimulation over control after normalizing with paired 18S RNA gene.
(§5) Data Analyses. […] Group comparisons were analyzed using one-way ANOVA and subsequent post-hoc analysis by Tukey's test. […]

[5] = system: STZ-diabetic rats; test: Body weight, glycemic control and albuminuria in STZ-induced diabetic rats given LR-90 in drinking water for 32 weeks; format: in vivo, rat
[6] = system: STZ-diabetic rats; test: Total plasma triglycerides and cholesterol in STZ-diabetic rats; format: in vivo, rat
Procedure: Animal studies were carried out in compliance with policies outlined in “The Guide for the care and Handling of Laboratory Animals” (NIH Publication No. 85-23), which have been approved by the City of Hope National Medical Center Animal Care Committee. Induction of diabetes by STZ and all other procedures were according to the previously published article on LR-90 (25), except that in the present study the diabetic rats under treatment were randomized in 5 groups of ten each: one diabetic control group (0 mg/L), […] (FIG. 1). Both plasma glucose and body weight were checked before administration of the drug, and no differences were detected among the two non-diabetic groups and five diabetic treatment groups. All animals were housed individually and were given free access to food (Purina rodent chow 5001, Ralston Purina, Richmond, Ind., USA) and water. Glycemic control and body weights were monitored periodically. In order to limit hyperglycemia and ensure that animals maintained body weight, diabetic animals received 3 IU of ultralente insulin (Humulin U, Eli Lilly, Indianapolis, Ind., USA) two to three times per week. The study was carried out over 32 weeks.
(§6) Blood (from the tail vein) and urine samples were collected from rats for glycemic control analysis and albuminuria measurements. Plasma glucose was measured using a glucose analyzer machine (YSI 2300 STAT, Yellowsprings, Ohio, USA). HbAlc concentration was measured by HPLC (BioRad DIAMAT, Hercules, Calif., USA). Total plasma triglycerides and cholesterol concentrations were quantified at the end of the study using the Vitros 250 Chemistry System (Johnson & Johnson, Rochester, N.Y., USA). Progression of renal dysfunction was assessed by measuring urinary albumin-to-creatinine ratio (ACR). Rats were housed in metabolic cages (Nalge, Rochester, N.Y., USA) for 24 hr and urine was collected in a collection beaker with several drops of toluene to inhibit microbial growth. Urinary albumin and creatinine concentrations were quantified immunologically using the Nephrat/Creatinine Companion kits (Exocell), and the ACR value was calculated for each rat.

[7] = system: STZ-diabetic rats; test: Body weight, glycemic control and albuminuria in STZ-induced diabetic rats given LR-90 in drinking water for 32 weeks; format: in vivo, rat; remark: listed apart in the source
Procedure: (§7) Animal studies were carried out in compliance with policies outlined in “The Guide for the care and Handling of Laboratory Animals” (NIH Publication No. 85-23), which have been approved by the City of Hope National Medical Center Animal Care Committee. Induction of diabetes by STZ and all other procedures were according to the previously published article on LR-90 (25), except that in the present study the diabetic rats under treatment were randomized in 5 groups of ten each: one diabetic control group (0 mg/L), one group receiving 2.5 mg/L, one group receiving 10 mg/L, a third group receiving 20 mg/L and a fourth group receiving 50 mg/L of LR-90 in drinking water (FIG. 1). Both plasma glucose and body weight were checked before administration of the drug, and no differences were detected among the two non-diabetic groups and five diabetic treatment groups. All animals were housed individually and were given free access to food (Purina rodent chow 5001, Ralston Purina, Richmond, Ind., USA) and water. Glycemic control and body weights were monitored periodically. In order to limit hyperglycemia and ensure that animals maintained body weight, diabetic animals received 3 IU of ultralente insulin (Humulin U, Eli Lilly, Indianapolis, Ind., USA) two to three times per week. The study was carried out over 32 weeks.
as §6
(§8) At the end of study, the rats were weighed and anaesthetized with isofluorane and blood was drawn by heart puncture and transferred into heparinized and non-heparinized vacutainer tubes on ice. These blood samples were later centifuged for plasma and serum collection respectively, and stored at −70° C. until the time of analysis. Rats were killed by over-anesthetization and cardiac puncture and the kidneys were removed immediately, weighed, decapsulated and rinsed in PBS buffer. Sections of the kidneys were stored in 10% NBF for subsequent microscopic examinations and immunohistochemistry.
as §1, with “Statistical” for “Data Analyses. Statistical”

[8] = system: MCP-1; test: S100b-induced MCP-1 mRNA expression on THP-1 monocytes (RT-PCR); format: cell-based, human; details: THP-1, pre-treated 1 hr with 25-200 ug/ml, S100b 4 hr; statistically significant at 100 and 200 ug/ml
Procedure: as §3, §4, §5

[9] = system: COX-2; test: S100b-induced COX-2 mRNA expression on THP-1 monocytes (RT-PCR); format: cell-based, human; details: THP-1, pre-treated 1 hr with 25-200 ug/ml, S100b 4 hr; statistically significant at 100 and 200 ug/ml
Procedure: as §3, §4, §5

[10] = system: NADPH oxidase (gp91^phox subunit); test: S100b-induced NADPH oxidase mRNA expression on THP-1 monocytes (RT-PCR); format: cell-based, human; details: THP-1, pre-treated 1 hr with 25-200 ug/ml, S100b 4 hr; statistically significant at 100 and 200 ug/ml
Procedure: as §3, §4, §5

[11] = system: kidneys of diabetic rats; test: Kidney histology (PAS and Trichrome staining) in STZ-diabetic rats; format: in vivo, rat
Procedure: as §8

[12] = system: RAGE; test: Immunohistochemical staining of renal RAGE protein expression; format: in vivo, rat; details: diabetic rats, increasing concentrations; 25 and 50 mg/L best inhibitory effects
Description: as §2

[13] = system: non-diabetic rats; test: Non-diabetic control rats given LR-90 in drinking water for 32 weeks; format: in vivo, rat
Procedure: as §7, §6
At the end of study, the rats were weighed and anaesthetized with isofluorane and blood was drawn by heart puncture and transferred into heparinized and non-heparinized vacutainer tubes on ice. These blood samples were later centifuged for plasma and serum collection respectively, and stored at −70° C. until the time of analysis. […]
Statistical analyses were performed using Prism software (GraphPad, San Diego, Calif., USA). […] Group comparisons were analyzed using one-way ANOVA and subsequent post-hoc analysis by Tukey's test. […]

[14] = target: hemoglobin (Homo sapiens, UniProt P68871+P69905); details: synergistic with 2,3-bisphosphoglycerate; cited from earlier work
[15] = system: rats fed a diet rich in cholesterol; details: cited from earlier work
[16] = 25 mg per liter drinking water daily
[17] = streptozotocin-induced diabetic rats, summary statement
[18] = 2.5 mg per liter drinking water daily
[19] = 10 mg per liter drinking water daily
[20] = 50 mg per liter drinking water daily
[21] = marked difference at 25 and 50 mg/L
[22] = non-diabetic rats, 50 mg per liter drinking water daily

hemoglobin, sequence (P69905 2-142 limits assumed): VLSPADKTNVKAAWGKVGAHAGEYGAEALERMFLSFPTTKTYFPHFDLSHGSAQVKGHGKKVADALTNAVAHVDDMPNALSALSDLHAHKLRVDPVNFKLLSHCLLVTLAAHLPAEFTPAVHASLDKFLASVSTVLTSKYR
hemoglobin, sequence (P68871 2-147 limits assumed): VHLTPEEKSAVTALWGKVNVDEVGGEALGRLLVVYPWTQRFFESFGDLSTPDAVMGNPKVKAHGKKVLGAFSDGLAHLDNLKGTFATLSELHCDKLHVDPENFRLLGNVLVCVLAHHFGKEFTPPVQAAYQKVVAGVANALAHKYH

CC(C)(Oc1ccc(NC(=O)Nc2ccc(Cc3ccc(NC(=O)Nc4ccc(OC(C)(C)C(=O)O)cc4)c(Cl)c3)cc2Cl)cc1)C(=O)O [LR-90]
cell viability (Trypan blue staining) [1]: viable | cell counts after incubation ([1]; THP-1, same concentrations as in S100b experiments, 24 hr): normal and statistically similar to the untreated cells | MCP-1 protein expression (secreted, ELISA) [2]: inhibited MCP-1 protein expression in a concentration-dependent manner | CML-AGE accumulation in kidney glomeruli and cortical tubules [3]: visibly reduced | S100b-induced RAGE mRNA expression [4]: profoundly suppressed | HbA1c [5, 16]: 2.9 ± 0.4 % | Plasma Glucose [5, 16]: 26.7 ± 2.4 mmol/L | ACR (urinary albumin-to-creatinine ratio) ([5]; 25 mg per liter drinking water daily, p < 0.05 vs. diabetic rats): 1.75 ± 1.43 mg/mg | rise in ACR ([5]; 25 and 50 mg/L doses statistically significant vs. untreated diabetic animals): inhibited the rise in ACR in almost dose-dependent manner | reduction in triglyceride concentration ([6]; diabetic rats, 25 mg/L): ≥ 60% | reduction in triglyceride concentration ([6]; diabetic rats, 50 mg/L): ≥ 60% | cholesterol concentration relative to non-diabetic animals ([6]; diabetic rats, all concentrations tested with the exception of 10 mg/L): nearly normalized | reduction in triglyceride concentration ([6]; diabetic rats, lowest concentration (25 mg/L) tested): ~50% | reduction of increased concentration of cholesterol [6, 17]: more than 50% | reduction of increased concentration of triglycerides [6, 17]: more than 50% | ACR (urinary albumin-to-creatinine ratio) [7, 18]: 2.35 ± 1.96 mg/mg | HbA1c [7, 18]: 2.6 ± 0.6 % | Plasma Glucose [7, 18]: 29.9 ± 5.9 mmol/L | ACR (urinary albumin-to-creatinine ratio) [7, 19]: 2.60 ± 1.74 mg/mg | HbA1c [7, 19]: 3.0 ± 0.4 % | Plasma Glucose [7, 19]: 30.8 ± 2.9 mmol/L | HbA1c [7, 20]: 3.0 ± 0.2 % | Plasma Glucose [7, 20]: 31.6 ± 3.9 mmol/L | ACR (urinary albumin-to-creatinine ratio) ([7]; 50 mg per liter drinking water daily, p < 0.05 vs. diabetic rats): 1.39 ± 1.17 mg/mg | effect on HbAlc concentration ([7]; various doses): no affect | effect on plasma glucose concentration ([7]; various doses): no affect | S100b-induced MCP-1 mRNA expression [8]: profoundly suppressed | S100b-induced COX-2 mRNA expression [9]: profoundly suppressed | S100b-induced NADPH oxidase mRNA expression [10]: profoundly suppressed | cell infiltration in the renal interstitium [11]: prevented cell infiltration | mesangial expansion and basement membrane thickening of the kidneys [11]: prevented mesangial expansion and basement membrane thickening | collagen deposition and tubular degeneration in the kidney glomeruli (Trichrome staining) [11, 21]: prevented collagen deposition and tubular degeneration | levels of PAS-positive materials in kidney glomeruli [11, 21]: reduced the levels of PAS-positive materials | RAGE protein expression in the glomeruli [12]: visibly reduced | effect on lipid metabolism ([13]; non-diabetic animals): no effect | ACR (urinary albumin-to-creatinine ratio) [13, 22]: 0.42 ± 0.32 mg/mg | HbA1c [13, 22]: 1.2 ± 0.1% | Plasma Glucose [13, 22]: 8.9 ± 1.0 mmol/L

N-4-(nitrophthalimido)phenoxyisobutyric acid [LR-16]
effect on oxygen affinity of hemoglobin molecules [14]: allosteric effector | low-density lipoproteins (LDL) [15]: lower | serum cholesterol [15]: lower
